Measurements reported in US10376520B2, “Methods for the treatment of cardiovascular disorders” (Galapagos NV, priority 2015, dated 2019).

Key:
[1] = tested on: RA patients; experiment: CRP analysis (immunoturbidimetric assay), Study 1; format: in vivo, human
Description: Double-blind, placebo-controlled add on study in subjects with moderately to severely active RA who have an inadequate response to methotrexate (MTX) (oral or parenteral).
Compound 1 (dosed as a [Compound 1:HCl:3H2O]) is dosed for twelve weeks once daily (q.d.) (50 mg, 100 mg or 200 mg) or twice daily (b.i.d.) (25 mg, 50 mg or 100 mg); or placebo.
At Week 12, the subjects on placebo who have not achieved 20% improvement in swollen joint count (SJC66) and tender joint count (TJC68) are re-randomized automatically to receive Compound 1 (dosed as a [Compound 1:HCl:3H2O]) either at 100 mg q.d. or 50 mg b.i.d. doses in a blinded fashion; subjects on 50 mg q.d. who have not achieved 20% improvement in SJC66 and TJC68 will be assigned to 100 mg q.d. and subjects on 25 mg b.i.d. that have not achieved a 20% improvement in SJC66 and TJC68 will be assigned to 50 mg b.i.d. Subjects who switch treatment at week 12 are handled as if they discontinued at week 12 for the purpose of statistical analysis, whereas subjects in the other groups will maintain their randomized treatment until Week 24.
The determination of CRP is made using Immunoturbidimetric assay for the in vitro quantitative determination of CRP in human serum and plasma on Roche/Hitachi cobas c systems, wherein human CRP agglutinates with latex particles coated with monoclonal anti-CRP antibodies. The aggregates are determined turbidimetrically (Eda et al., 1998; Price et al., 1987).
Human serum and plasma samples [CRP] determination was done on a Roche/Hitachi Cobas c 301 c 501/502 system which automatically calculate the analyte concentration of each sample. Samples containing precipitates are centrifuged before performing the assay.
The Hommel-corrected p-value for the pairwise comparisons of each group with placebo is shown.
The number of subjects (N) provided in each groups corresponds to the number of patients starting the study in each group, and the ACR data reported below corresponds to the responding patients continuing for the entire 24 weeks on their initial treatment course.

[2] = tested on: Japanese and Caucasian healthy subjects; experiment: LDL determination, Study 3 (healthy volunteers); format: in vivo, human; conditions: for [LDL] % Mean % variation vs baseline 10 days: 200 mg q.d.; for [LDL] levels: Study 3
Description: Randomized, double-blind, placebo-controlled study for the assessment of safety, tolerability, pharmacokinetics, and pharmacodynamics, of multiple oral doses of Compound 1 (dosed as a [Compound 1:HCl:3H2O]) in Japanese and Caucasian healthy subjects.
Randomized, double-blind, placebo-controlled, single center, sequential design study.
Compound 1 (dosed as a [Compound 1:HCl:3H2O]) is administered for 10 days as oral film-coated tablet (25 and 100 mg and matching placebos). Placebo are provided as a matching tablet.
The study drug is ingested with 240 mL water after a standardized breakfast on Days 2-9. On PK days (Day 1 and Day 10) the study drug is administered in a fasted state (subjects will receive lunch 4 h after dosing on Day 1 and Day 10).
10 Japanese subjects (6 active, 4 placebo) and 10 Caucasian subjects (6 active, 4 placebo) will receive once daily an oral dose of 200 mg Compound 1 (dosed as a [Compound 1:HCl:3H2O]) or matching placebo as two tablets of 100 mg or matching placebo for 10 days. For practical reasons, these subjects may be split over separate groups, each group consisting of an equal number of Japanese and Caucasian Compound 1 (dosed as a [Compound 1:HCl:3H2O]) treated subjects and Japanese and Caucasian placebo subjects.
The determination of [LDL]-cholesterol is made using an automated method taking advantage of the selective micellary solubilization of [LDL]-cholesterol by a nonionic detergent and the interaction of a sugar compound and lipoproteins (VLDL and chylomicrons).
When a detergent is included in the enzymatic method for cholesterol determination (cholesterol esterase, cholesterol oxidase coupling reaction), the relative reactivities of cholesterol in the lipoprotein fractions increase in this order: [HDL]<chylomicrons <VLDL <[LDL]. In the presence of Mg^2+, a sugar compound markedly reduces the enzymatic reaction of the cholesterol measurement in VLDL and chylomicrons. The combination of a sugar compound with detergent enables the selective determination of [LDL]-cholesterol in serum. (Friedewald et al., 1972; Rifai et al., 1992)
Homogeneous enzymatic colorimetric assay.
In the presence of peroxidase, the hydrogen peroxide generated reacts with 4-aminoantipyrine and Sodium N-(2-hydroxy-3-sulfopropyl)-3,5-dimethoxyaniline (HSDA) to form a purple-blue dye.
The color intensity of this dye is directly proportional to the cholesterol concentration and is measured photometrically.
Human serum and plasma samples [LDL] determination was done on a Roche/Hitachi Cobas c 701/702 system which automatically calculate the analyte concentration of each sample. Samples containing precipitates are centrifuged before performing the assay.

O=C(Nc1nc2cccc(-c3ccc(CN4CCS(=O)(=O)CC4)cc3)n2n1)C1CC1 [Compound 1, cyclopropanecarboxylic acid {5-[4-(1,1-dioxo-thiomorpholin-4-ylmethyl)-phenyl]-[1,2,4]triazolo[1,5-a]pyridin-2yl}-amide]
CRP mean CFB (LOCF) - 24 weeks results ([1]; 50 mg q.d., week 1): -7.95 mg/L
CRP mean CFB (LOCF) - 24 weeks results ([1]; 50 mg q.d., week 2): -8.23 mg/L
CRP mean CFB (LOCF) - 24 weeks results ([1]; 50 mg q.d., week 4): -10.18 mg/L
CRP mean CFB (LOCF) - CRP variation ([1]; 50 mg q.d., week 8): -12.02 mg/L
CRP mean CFB (LOCF) - 24 weeks results ([1]; 50 mg q.d., week 12): -13.15 mg/L
CRP mean CFB (LOCF) - 24 weeks results ([1]; 100 mg q.d., week 1): -11.02 mg/L
CRP mean CFB (LOCF) - 24 weeks results ([1]; 100 mg q.d., week 2): -12.94 mg/L
CRP mean CFB (LOCF) - 24 weeks results ([1]; 100 mg q.d., week 4): -13.18 mg/L
CRP mean CFB (LOCF) - 24 weeks results ([1]; 100 mg q.d., week 8): -12.48 mg/L
CRP mean CFB (LOCF) - 24 weeks results ([1]; 100 mg q.d., week 12): -13.57 mg/L
CRP mean CFB (LOCF) - 24 weeks results ([1]; 200 mg q.d., week 1): -17.06 mg/L
CRP mean CFB (LOCF) - 24 weeks results ([1]; 200 mg q.d., week 2): -17.51 mg/L
CRP mean CFB (LOCF) - 24 weeks results ([1]; 200 mg q.d., week 4): -17.94 mg/L
CRP mean CFB (LOCF) - 24 weeks results ([1]; 200 mg q.d., week 8): -17.22 mg/L
CRP mean CFB (LOCF) - 24 weeks results ([1]; 200 mg q.d., week 12): -17.24 mg/L
CRP mean CFB (LOCF) - 24 weeks results ([1]; 2 × 25 mg b.i.d., Week 1): -8.47 mg/L
CRP mean CFB (LOCF) - 24 weeks results ([1]; 2 × 25 mg b.i.d., Week 2): -10.06 mg/L
CRP mean CFB (LOCF) - 24 weeks results ([1]; 2 × 25 mg b.i.d., Week 4): -7.72 mg/L
CRP mean CFB (LOCF) - 24 weeks results ([1]; 2 × 25 mg b.i.d., Week 8): -10.94 mg/L
CRP mean CFB (LOCF) - 24 weeks results ([1]; 2 × 25 mg b.i.d., Week 12): -10.26 mg/L
CRP mean CFB (LOCF) - 24 weeks results ([1]; 2 × 25 mg b.i.d., Week 20): -12.20 mg/L
CRP mean CFB (LOCF) - 24 weeks results ([1]; 2 × 50 mg b.i.d., Week 1): -10.08 mg/L
CRP mean CFB (LOCF) - 24 weeks results ([1]; 2 × 50 mg b.i.d., Week 2): -11.03 mg/L
CRP mean CFB (LOCF) - 24 weeks results ([1]; 2 × 50 mg b.i.d., Week 4): -13.28 mg/L
CRP mean CFB (LOCF) - 24 weeks results ([1]; 2 × 50 mg b.i.d., Week 8): -13.25 mg/L
CRP mean CFB (LOCF) - 24 weeks results ([1]; 2 × 50 mg b.i.d., Week 12): -12.97 mg/L
CRP mean CFB (LOCF) - 24 weeks results ([1]; 2 × 100 mg b.i.d., Week 1): -17.39 mg/L
CRP mean CFB (LOCF) - 24 weeks results ([1]; 2 × 100 mg b.i.d., Week 2): -19.69 mg/L
CRP mean CFB (LOCF) - 24 weeks results ([1]; 2 × 100 mg b.i.d., Week 4): -20.64 mg/L
CRP mean CFB (LOCF) - 24 weeks results ([1]; 2 × 100 mg b.i.d., Week 8): -21.32 mg/L
CRP mean CFB (LOCF) - 24 weeks results ([1]; 2 × 100 mg b.i.d., Week 12): -20.54 mg/L
CRP mean CFB (LOCF) - 24 weeks results ([1]; 2 × 100 mg b.i.d., Week 20): -20.80 mg/L
[LDL] % Mean % variation vs baseline 10 days ([2]; Caucasian): −1.3%
[LDL] % Mean % variation vs baseline 10 days ([2]; Japanese): −8.9%
[LDL] levels ([2]; Caucasian 200 mg q.d. for 10 days, day 17): 2.5 mmol/L
[LDL] levels ([2]; Caucasian 200 mg q.d., day 0): 2.6 mmol/L
[LDL] levels ([2]; Caucasian 200 mg q.d., day 5): 2.6 mmol/L
[LDL] levels ([2]; Caucasian 200 mg q.d., day 10): 2.4 mmol/L
[LDL] levels ([2]; Japanese 200 mg q.d. for 10 days, day 17): 2.7 mmol/L
[LDL] levels ([2]; Japanese 200 mg q.d., day 0): 2.7 mmol/L
[LDL] levels ([2]; Japanese 200 mg q.d., day 5): 2.5 mmol/L
[LDL] levels ([2]; Japanese 200 mg q.d., day 10): 2.5 mmol/L
